Results published in patent US20210330611A1, “THERAPY FOR NEUROLOGICAL DISEASES/DISORDERS” (priority 2020, published 2021).
Structures can show the parent of a compound that is named as a salt. Where two headings read alike, the source gives them in different places.

What was measured:
[1] = tested on: fibrin-induced microglia activation; test: Image-based assay of fibrin-induced microglia activation (HTS and dose response); assay type: cell-based, rat; details: for IC50 / inhibition at 10 µM: Rattus norvegicus, Microglia; for inhibition at 10 µM: read-out: Fibrin % inhibition
[2] = tested on: LPS-induced microglia activation; test: Image-based assay of LPS-induced microglia activation (HTS and dose response); assay type: cell-based, rat; details: Rattus norvegicus, Microglia; for inhibition at 10 µM: read-out: LPS % inhibition
[3] = tested on: fibrin- and LPS-induced microglia activation; test: cells; assay type: cell-based, rat; details: for inhibition at 10 µM: Rattus norvegicus
primary rat microglia [4] = details: rat
primary rat microglia [5] = details: rat; remark: listed apart in the source
in vitro [6] = details: rat, Cell Toxicity IC50 (uM) [cFib assay]
in vitro [7] = details: rat
[8] = 48 h, Table 1, dose response 0.001-20 μM, triplicates, primary rat microglia, 48 h, read-out: Fibrin IC50
[9] = dose response, fibrin-induced microglia activation, read-out: Fibrin IC50
[10] = fibrin-induced microglia activation, dose response, read-out: Fibrin IC50 (uM) (Suppl. Table 7)
[11] = primary microglia HTS, fibrin stimulation, increased cell size (>800 μm^2) as marker of activation
[12] = 48 h, Table 1, dose response 0.001-20 μM, triplicates, primary rat microglia, 48 h, read-out: LPS IC50
[13] = 48 h, primary microglia HTS, LPS stimulation, increased cell size (>800 μm^2) as marker of activation
[14] = LPS-induced microglia activation, dose response, read-out: LPS IC50 (uM) (Suppl. Table 7)
[15] = dose response, LPS-induced microglia activation, read-out: LPS IC50
[16] = HTS of 1907 compounds, quadrant by fibrin and LPS inhibition
[17] = Microglia, HTS hit classification, read-out: Hit
[18] = hit classification in microglia HTS, read-out: Cherry-picked Hit (Suppl. Table 7)
[19] = quadrant by fibrin and LPS inhibition in HTS of 1907 compounds
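Throughout, for Fibrin % cell toxicity: share of dead cells sized under 150 µm2 at 10 µM in fibrin-stimulated microglia HTS.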

Work on `CCN(CC)CCNc1ccc(CO)c2sc3ccccc3c(=O)c12` [Hycanthone, reference compound] yielded an IC50 [1, 8] of 1 µM, an IC50 ([1]; Table 7, read-out: fib_IC50) of 0.619 µM and an IC50 [1, 9] of 1 µM. It also gave an IC50 [1, 10] of 1 µM, an inhibition at 10 µM [1, 11] of 103% and an IC50 [2, 12] of 1 µM. The inhibition at 10 µM [2, 13] was 71%, the IC50 [2, 14] was 1 µM and the IC50 ([2]; Table 7, read-out: LPS_IC50) was 0.354 µM. For the same molecule, the IC50 [2, 15] was 1 µM, the “Quadrant (FIG. 5b)” value [3, 16] was “Q2” and the inhibition at 10 µM [3, 17] was greater than 50%. The inhibition at 10 µM [3, 18] was greater than 50%, the “Quadrant (FIG. 5b)” value ([3]; Table 1, screen at 10 μM) was “Q2” and the Activity ([3]; Table 7, fib = fibrin, LPS, tox = toxicity) was “fib/LPS”. The “Quadrant (FIG. 5b)” value [3, 19] was “Q2”, the “Fibrin % cell toxicity” value (primary rat microglia [4]) was 2% and the “LPS % cell toxicity” value (primary rat microglia [5]) was 2%. The IC50 (in vitro [6]) was greater than 20 µM and the IC50 (in vitro [7]) was 11 µM.

Work on `CO[C@H]1C[C@@H]2CC[C@@H](C)[C@@](O)(O2)C(=O)C(=O)N2CCCC[C@H]2C(=O)O[C@H]([C@H](C)C[C@@H]2CC[C@@H](O)[C@H](OC)C2)CC(=O)[C@H](C)/C=C(\C)[C@@H](O)[C@@H](OC)C(=O)[C@H](C)C[C@H](C)/C=C/C=C/C=C/1C` [Rapamycin, reference compound] yielded an IC50 [1, 8] of less than 0.001 µM, an IC50 [1, 9] of less than 0.001 µM and an IC50 [1, 10] of less than 0.001 µM. For the same molecule, the inhibition at 10 µM [1, 11] was 86%, the IC50 [2, 12] was less than 0.001 µM and the inhibition at 10 µM [2, 13] was 53%. The IC50 [2, 14] was less than 0.001 µM, the IC50 [2, 15] was less than 0.001 µM and the “Quadrant (FIG. 5b)” value [3, 16] was “Q2”. For the same molecule, the inhibition at 10 µM [3, 17] was greater than 50%, the inhibition at 10 µM [3, 18] was greater than 50% and the “Quadrant (FIG. 5b)” value ([3]; Table 1, screen at 10 μM) was “Q2”. The “Quadrant (FIG. 5b)” value [3, 19] was “Q2”, the “Fibrin % cell toxicity” value (primary rat microglia [4]) was 3% and the “LPS % cell toxicity” value (primary rat microglia [5]) was 2%. The IC50 (in vitro [6]; cFib assay) was greater than 20 µM and the IC50 (in vitro [7]) was greater than 20 µM.

In the case of `OCc1cc(C(O)CNCCCCCCOCCCCc2ccccc2)ccc1O` (stereo not shown) [Salmeterol, reference compound], the “Fibrin Selectivity” value [1] is reported as 10, the “Fibrin Selectivity (LOG10)” value [1] is reported as 1.02 and the IC50 ([1]; 48 h, read-out: Fibrin IC50) is reported as 1 µM. For the same molecule, the inhibition at 10 µM [1] was 56%, the IC50 ([1]; read-out: Fibrin IC50 (uM)) was 1 µM and the IC50 ([1]; read-out: Fibrin IC50 (uM) (Suppl. Table 7)) was 1 µM. It also gave an inhibition at 10 µM ([2]; 48 h) of 29%, an IC50 ([2]; 48 h, read-out: LPS IC50) of 14 µM and an IC50 ([2]; read-out: LPS IC50 (uM)) of 14 µM. The IC50 ([2]; read-out: LPS IC50 (uM) (Suppl. Table 7)) was 14 µM, the “Quadrant (FIG. 5b)” value [3] was “Q3” and the inhibition at 10 µM ([3]; Microglia, read-out: Cherry-picked Hit (Suppl. Table 7)) was greater than 50%. The inhibition at 10 µM ([3]; Microglia, read-out: Hit) was greater than 50%, the “Fibrin % cell toxicity” value (primary rat microglia [4]) was 1% and the “LPS % cell toxicity” value (primary rat microglia [5]) was 1%. It also gave an IC50 (in vitro [6]) greater than 20 µM and an IC50 (in vitro [7]) greater than 20 µM.

`COC(=O)C(c1ccccc1)C1CCCCN1` (stereo not shown) [Methylphenidate hydrochloride, reference compound] gave an IC50 [1, 8] greater than 20 µM, an IC50 [1, 9] greater than 20 µM and an IC50 [1, 10] greater than 20 µM. It also gave an inhibition at 10 µM [1, 11] of 81%, an IC50 [2, 12] greater than 20 µM and an inhibition at 10 µM [2, 13] of 75%. For the same molecule, the IC50 [2, 14] was greater than 20 µM, the IC50 [2, 15] was greater than 20 µM and the “Quadrant (FIG. 5b)” value [3, 16] was “Q2”. The inhibition at 10 µM [3, 17] was greater than 50%, the inhibition at 10 µM [3, 18] was greater than 50% and the “Quadrant (FIG. 5b)” value ([3]; Table 1, screen at 10 μM) was “Q2”. The “Quadrant (FIG. 5b)” value [3, 19] was “Q2”, the “Fibrin % cell toxicity” value (primary rat microglia [4]) was 2% and the “LPS % cell toxicity” value (primary rat microglia [5]) was 1%. The IC50 (in vitro [6]; cFib assay) was greater than 20 µM and the IC50 (in vitro [7]) was greater than 20 µM.

Work on `O=C1NC(=O)C(c2ccccc2)(c2ccccc2)N1` [Phenytoin sodium, reference compound] yielded an IC50 [1, 8] greater than 20 µM, an IC50 [1, 9] greater than 20 µM and an IC50 [1, 10] greater than 20 µM. For the same molecule, the inhibition at 10 µM [1, 11] was 82%, the IC50 [2, 12] was greater than 20 µM and the inhibition at 10 µM [2, 13] was 63%. The IC50 [2, 14] was greater than 20 µM, the IC50 [2, 15] was greater than 20 µM and the “Quadrant (FIG. 5b)” value [3, 16] was “Q2”. The inhibition at 10 µM [3, 17] was greater than 50%, the inhibition at 10 µM [3, 18] was greater than 50% and the “Quadrant (FIG. 5b)” value ([3]; Table 1, screen at 10 μM) was “Q2”. The “Quadrant (FIG. 5b)” value [3, 19] was “Q2”, the “Fibrin % cell toxicity” value (primary rat microglia [4]) was 1% and the “LPS % cell toxicity” value (primary rat microglia [5]) was 1%. The IC50 (in vitro [6]; cFib assay) was greater than 20 µM and the IC50 (in vitro [7]) was greater than 20 µM.
